Data on 23 molecules can be found in US8138189B2, “Substituted benzene compounds as modulators of the glucocorticoid receptor” (Hoffman-La Roche Inc., priority 2009, dated 2012).

Structures are written as SMILES.

This experiment addresses T1, full length human recombinant glucocorticoid receptor (Homo sapiens, UniProt P04150).
T1 construct: partially purified full length human recombinant glucocorticoid receptor; purchased Panvera/Invitrogen PV4302
T1 sequence (P04150 1-777): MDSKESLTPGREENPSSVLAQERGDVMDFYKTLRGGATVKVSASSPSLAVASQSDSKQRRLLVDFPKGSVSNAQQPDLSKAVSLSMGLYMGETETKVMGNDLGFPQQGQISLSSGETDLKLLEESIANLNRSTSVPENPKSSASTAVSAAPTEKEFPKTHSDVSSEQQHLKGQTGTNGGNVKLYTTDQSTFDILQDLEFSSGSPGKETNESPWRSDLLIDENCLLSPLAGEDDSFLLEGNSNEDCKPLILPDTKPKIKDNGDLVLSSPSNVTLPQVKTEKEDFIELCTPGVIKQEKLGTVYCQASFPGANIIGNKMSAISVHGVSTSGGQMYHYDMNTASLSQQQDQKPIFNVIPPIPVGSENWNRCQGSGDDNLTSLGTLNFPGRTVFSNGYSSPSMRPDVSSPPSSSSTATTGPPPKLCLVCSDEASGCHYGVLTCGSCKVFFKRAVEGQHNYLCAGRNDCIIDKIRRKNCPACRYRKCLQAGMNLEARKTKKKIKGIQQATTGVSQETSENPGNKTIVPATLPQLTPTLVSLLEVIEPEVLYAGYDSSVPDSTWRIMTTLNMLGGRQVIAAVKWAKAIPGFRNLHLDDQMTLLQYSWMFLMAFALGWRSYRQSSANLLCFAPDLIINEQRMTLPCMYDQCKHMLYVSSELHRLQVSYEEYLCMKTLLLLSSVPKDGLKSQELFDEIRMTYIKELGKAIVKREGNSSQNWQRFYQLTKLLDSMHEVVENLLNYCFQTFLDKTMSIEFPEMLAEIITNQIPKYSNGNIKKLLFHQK
Description: Glucocorticoid Receptor Binding Assay (fluorescence polarization competitor assay, Fluormone GS Far Red tracer). In outline: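 Partially purified full-length recombinant human GR with a stabilizing coactivator peptide was incubated with Fluormone GS Far Red tracer and serially diluted compound for 3 h at 22 °C in the dark, pH 7.4. Fluorescence polarization was read at 610-660 nm. IC50 came from sigmoidal fitting, and Ki from Cheng-Prusoff.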
By Ki is commonly meant the equilibrium dissociation constant of an inhibitor or competing ligand from its target. With `CCOC(=O)c1ccc(COc2ccc([C@@H](C)[C@@](O)(c3ccnc(Cl)c3)C(F)(F)F)c(Cl)c2)cc1` (stereo in doubt) [Example 19, 4-{3-Chloro-4-[2-(2-chloro-pyridin-4-yl)-3,3,3-trifluoro-2-hydroxy-1-methyl-propyl]-phenoxymethyl}-benzoic acid ethyl ester], the Ki came to 45.9 nM. As for `C[C@H](c1ccc(OCc2ccc(C(=O)O)cc2)cc1Cl)[C@@](O)(c1ccnc(Cl)c1)C(F)(F)F` (stereo in doubt) [Example 20, 4-{3-Chloro-4-[2-(2-chloro-pyridin-4-yl)-3,3,3-trifluoro-2-hydroxy-1-methyl-propyl]-phenoxymethyl}-benzoic acid], the Ki came out at 2.9 nM. Under `COc1cc(C(=O)O)ccc1COc1ccc([C@@H](C)[C@@](O)(c2ccnc(Cl)c2)C(F)(F)F)c(Cl)c1` (stereo in doubt) [Example 22, 4-{3-Chloro-4-[2-(2-chloro-pyridin-4-yl)-3,3,3-trifluoro-2-hydroxy-1-methyl-propyl]-phenoxymethyl}-3-methoxy-benzoic acid] stands 10.7 nM. In the case of `C[C@H](c1ccc(OCc2ccc(CC(=O)O)cc2)cc1Cl)[C@@](O)(c1ccnc(Cl)c1)C(F)(F)F` (stereo in doubt) [Example 24, (4-{3-Chloro-4-[2-(2-chloro-pyridin-4-yl)-3,3,3-trifluoro-2-hydroxy-1-methyl-propyl]-phenoxymethyl}-phenyl)-acetic acid] it was 4.7 nM; in that of `C[C@H](c1ccc(OS(=O)(=O)c2ccc(C(=O)O)cc2)cc1Cl)[C@@](O)(c1ccnc(Cl)c1)C(F)(F)F` (stereo in doubt) [Example 25, 4-{3-Chloro-4-[2-(2-chloro-pyridin-4-yl)-3,3,3-trifluoro-2-hydroxy-1-methyl-propyl]-phenoxysulfonyl}-benzoic acid], 11.5 nM; in that of `C[C@H](c1ccc(C(=O)Nc2ccc(C(=O)O)cc2)cc1Cl)[C@@](O)(c1ccnc(Cl)c1)C(F)(F)F` (stereo in doubt) [Example 26, 4-{3-Chloro-4-[2-(2-chloro-pyridin-4-yl)-3,3,3-trifluoro-2-hydroxy-1-methyl-propyl]-benzoylamino}-benzoic acid], 200 nM. In the case of `COC(=O)c1ccnc(NC(=O)c2ccc([C@@H](C)[C@@](O)(c3ccnc(Cl)c3)C(F)(F)F)c(Cl)c2)c1` (stereo in doubt) [Example 27, 2-{3-Chloro-4-[-2-(2-chloro-pyridin-4-yl)-3,3,3-trifluoro-2-hydroxy-1-methyl-propyl]-benzoylamino}-isonicotinic acid methyl ester] it was 94.7 nM; in that of `C[C@H](c1ccc(C(=O)Nc2cc(C(=O)O)ccn2)cc1Cl)[C@@](O)(c1ccnc(Cl)c1)C(F)(F)F` (stereo in doubt) [Example 29, 2-{3-Chloro-4-[2-(2-chloro-pyridin-4-yl)-3,3,3-trifluoro-2-hydroxy-1-methyl-propyl]-benzoylamino}-isonicotinic acid], 171 nM; in that of `CCOC(=O)C1CCN(C(=O)c2ccc([C@@H](C)[C@@](O)(c3ccnc(Cl)c3)C(F)(F)F)c(Cl)c2)CC1` (stereo in doubt) [Example 32, 1-{3-Chloro-4-[2-(2-chloro-pyridin-4-yl)-3,3,3-trifluoro-2-hydroxy-1-methyl-propyl]-benzoyl}-piperidine-4-carboxylic acid ethyl ester], 245 nM. In the case of `C[C@H](c1ccc(C(=O)Nc2ccn(CC(=O)O)n2)cc1Cl)[C@@](O)(c1ccnc(Cl)c1)C(F)(F)F` (stereo in doubt) [Example 35, (3-{3-Chloro-4-[2-(2-chloro-pyridin-4-yl)-3,3,3-trifluoro-2-hydroxy-1-methyl-propyl]-benzoylamino}-pyrazol-1-yl)-acetic acid], the Ki came out at 337 nM. On to `C[C@H](c1ccc(C(=O)NCc2ccc(C(=O)O)cc2)cc1Cl)[C@@](O)(c1ccnc(Cl)c1)C(F)(F)F` (stereo in doubt) [Example 37, 4-({3-Chloro-4-[2-(2-chloro-pyridin-4-yl)-3,3,3-trifluoro-2-hydroxy-1-methyl-propyl]-benzoylamino}-methyl)-benzoic acid], for which the Ki amounted to 140 nM.

`C[C@H](c1ccc(C(=O)Nc2ccc(CC(=O)O)cc2)cc1Cl)[C@@](O)(c1ccnc(Cl)c1)C(F)(F)F` (stereo in doubt) [Example 39, (4-{3-Chloro-4-[2-(2-chloro-pyridin-4-yl)-3,3,3-trifluoro-2-hydroxy-1-methyl-propyl]-benzoylamino}-phenyl)-acetic acid]: the Ki was determined as 274 nM.

With `C[C@H](c1ccc(C(=O)Nc2cccc(C(=O)O)c2)cc1Cl)[C@@](O)(c1ccnc(Cl)c1)C(F)(F)F` (stereo in doubt) [Example 41, 3-{3-Chloro-4-[2-(2-chloro-pyridin-4-yl)-3,3,3-trifluoro-2-hydroxy-1-methyl-propyl]-benzoylamino}-benzoic acid], the Ki turned out to be 289 nM. In the case of `CCOC(=O)Cc1ccc(CNC(=O)c2ccc([C@@H](C)[C@@](O)(c3ccnc(Cl)c3)C(F)(F)F)c(Cl)c2)cc1` (stereo in doubt) [Example 42, [4-({3-Chloro-4-[2-(2-chloro-pyridin-4-yl)-3,3,3-trifluoro-2-hydroxy-1-methyl-propyl]-benzoylamino}-methyl)-phenyl]-acetic acid ethyl ester] it was 280 nM; in that of `C[C@H](c1ccc(C(=O)NCc2ccc(CC(=O)O)cc2)cc1Cl)[C@@](O)(c1ccnc(Cl)c1)C(F)(F)F` (stereo in doubt) [Example 43, [4-({3-Chloro-4-[2-(2-chloro-pyridin-4-yl)-3,3,3-trifluoro-2-hydroxy-1-methyl-propyl]-benzoylamino}-methyl)-phenyl]-acetic acid], 156 nM. Under `C[C@H](c1ccc(-c2nc(C(=O)O)no2)cc1Cl)[C@@](O)(c1ccnc(Cl)c1)C(F)(F)F` (stereo in doubt) [Example 48, 5-{3-Chloro-4-[2-(2-chloro-pyridin-4-yl)-3,3,3-trifluoro-2-hydroxy-1-methyl-propyl]-phenyl}-[1,2,4]oxadiazole-3-carboxylic acid] stands 144 nM. Under `COC(=O)c1ccc(-c2ccc([C@@H](C)[C@@](O)(c3ccnc(Cl)c3)C(F)(F)F)c(Cl)c2)cc1` (stereo in doubt) [Example 49, 3′-Chloro-4′-[2-(2-chloro-pyridin-4-yl)-3,3,3-trifluoro-2-hydroxy-1-methyl-propyl]-biphenyl-4-carboxylic acid methyl ester] stands 18.6 nM. Regarding `CCOC(=O)c1cccc(-c2ccc([C@@H](C)[C@@](O)(c3ccnc(Cl)c3)C(F)(F)F)c(Cl)c2)c1` (stereo in doubt) [Example 51, 3′-Chloro-4′-[2-(2-chloro-pyridin-4-yl)-3,3,3-trifluoro-2-hydroxy-1-methyl-propyl]-biphenyl-3-carboxylic acid ethyl ester], the Ki is 150 nM.

Turning to `C[C@H](c1ccc(-c2ccc(C(=O)O)c(F)c2)cc1Cl)[C@@](O)(c1ccnc(Cl)c1)C(F)(F)F` (stereo in doubt) [Example 54, 3′-Chloro-4′-[2-(2-chloro-pyridin-4-yl)-3,3,3-trifluoro-2-hydroxy-1-methyl-propyl]-3-fluoro-biphenyl-4-carboxylic acid], the Ki turned out to be 29.7 nM. In the case of `C[C@H](c1ccc(-c2ccc(CCC(=O)O)cc2)cc1Cl)[C@@](O)(c1ccnc(Cl)c1)C(F)(F)F` (stereo in doubt) [Example 55, 3-{3′-Chloro-4′-[2-(2-chloro-pyridin-4-yl)-3,3,3-trifluoro-2-hydroxy-1-methyl-propyl]-biphenyl-4-yl}-propionic acid] it was 29.4 nM; in that of `CCOC(=O)c1cccc(-c2ccc([C@@H](C)[C@@](O)(c3ccnc(-c4cccc(C(=O)OCC)c4)c3)C(F)(F)F)c(Cl)c2)c1` (stereo in doubt) [Example 56, 3′-Chloro-4′-{2-[2-(3-ethoxycarbonyl-phenyl)-pyridin-4-yl]-3,3,3-trifluoro-2-hydroxy-1-methyl-propyl}-biphenyl-3-carboxylic acid ethyl ester], 207 nM; in that of `C[C@H](c1ccc(-c2ccc(C(=O)O)cc2)cc1Cl)[C@@](O)(c1ccnc(-c2ccc(C(=O)O)cc2)c1)C(F)(F)F` (stereo in doubt) [Example 57, 4′-{2-[2-(4-Carboxy-phenyl)-pyridin-4-yl]-3,3,3-trifluoro-2-hydroxy-1-methyl-propyl}-3′-chloro-biphenyl-4-carboxylic acid], 242 nM. For the molecule `COc1cc(C(=O)O)ccc1Oc1ccc([C@@H](C)[C@@](O)(c2ccnc(Cl)c2)C(F)(F)F)c(Cl)c1` (stereo in doubt) [Example 92, 4-{3-Chloro-4-[2-(2-chloro-pyridin-4-yl)-3,3,3-trifluoro-2-hydroxy-1-methyl-propyl]-phenoxy}-3-methoxy-benzoic acid], the Ki came to 5.8 nM.
